Results as given in publication PMC7395068, “The evolution of strategies to minimise the risk of human drug-induced liver injury (DILI) in drug discovery and development” (Archives of Toxicology, 2020).
Like-named read-outs stand apart in the source and are kept apart here.

Tests used:
[1] = tested on: hLiMTs; assay: Combined HCI (HCS) and cellular ATP 3D assay in hLiMTs
[2] = tested on: PHH; conditions: cited from earlier work
[3] = cited from earlier work
[4] = plasma free fraction; cited from earlier work
[5] = Plasma free fraction (fu) and unbound Cmax (Cmax,u); format: in vitro ADME, human; conditions: unbound plasma Cmax
[6] = tested on: THLE-Null and THLE-3A4 cells; conditions: In vitro Assay; ref Gustafsson 2014; cited from earlier work
[7] = tested on: HepG2 cells, primary human hepatocytes; conditions: In vitro Assay; ref Garside 2014; cited from earlier work
[8] = tested on: isolated mouse liver mitochondria; conditions: In vitro Assay; ref Porceddu 2012; cited from earlier work
[9] = tested on: HepG2 cells; conditions: cited from earlier work
[10] = cited from earlier work; remark: listed apart in the source
[11] = tested on: rBsep; conditions: In vitro Assay; ref Dawson 2012; cited from earlier work
[12] = tested on: HepaRG spheroids; assay: Combined HCI (HCS) and cellular ATP 3D assay in HepaRG spheroids
[13] = read-out: Human plasma Cmax; total plasma Cmax.tot, median of 9 literature references; cited from earlier work
[14] = tested on: Upcyte human hepatocytes; conditions: In vitro Assay; ref Tolosa 2019; cited from earlier work
[15] = tested on: HepG2 cells; conditions: cited from earlier work; remark: listed apart in the source
[16] = tested on: human hepatocytes; conditions: cited from earlier work
[17] = tested on: THLE or HepG2 cells, isolated mitochondria, BSEP; conditions: cited from earlier work
[18] = tested on: hLiMTs; conditions: cited from earlier work
[19] = Microtissue model structural based (HCI), combined HCS and ATP, MEC < 25 × Cmax.tot cut-off
[20] = In vitro Assay, ref Proctor 2017
[21] = In vitro Assay, ref Persson 2013
[22] = Modeled in vitro assays (cytotoxicity, mitochondrial dysfunction, BSEP), ref Aleo et al. 2019

hLiMTs <25x Avg Cmax ATP ([1]; hLiMTs, ATP endpoint, cut-off <25x Avg Cmax): -ve | hLiMTs <100x Avg Cmaxu ATP ([1]; hLiMTs, ATP endpoint, cut-off <100x Avg Cmaxu): +ve (<100x Avg Cmaxu) | hLiMTs <25x Avg Cmax HCS ([1]; hLiMTs, HCS endpoints, cut-off <25x Avg Cmax): -ve | hLiMTs <100x Avg Cmaxu HCS ([1]; hLiMTs, HCS endpoints, cut-off <100x Avg Cmaxu): -ve | hLiMTs <25x Avg Cmax All ([1]; hLiMTs, all endpoints (ATP and HCS), cut-off <25x Avg Cmax): -ve | hLiMTs Cmax max All ([1]; hLiMTs, all endpoints, Cmax max used): -ve | hLiMTs Cmax min All ([1]; hLiMTs, all endpoints, Cmax min used): -ve | hLiMTs <10 uM All ([1]; hLiMTs, all endpoints, cut-off <10 uM): -ve | hLiMTs <100x Avg Cmaxu All ([1]; hLiMTs, all endpoints, cut-off <100x Avg Cmaxu): +ve (<100x Avg Cmaxu) | Human plasma Cmax,u [5]: 41.912 µM | HepaRG <25x Avg Cmax ATP ([12]; HepaRG, ATP endpoint, cut-off <25x Avg Cmax): -ve | HepaRG <100x Avg Cmaxu ATP ([12]; HepaRG, ATP endpoint, cut-off <100x Avg Cmaxu): +ve (<100x Avg Cmaxu) | HepaRG <25x Avg Cmax HCS ([12]; HepaRG, HCS endpoints, cut-off <25x Avg Cmax): -ve | HepaRG <100x Avg Cmaxu HCS ([12]; HepaRG, HCS endpoints, cut-off <100x Avg Cmaxu): +ve (<100x Avg Cmaxu) | HepaRG <25x Avg Cmax All ([12]; HepaRG, all endpoints (ATP and HCS), cut-off <25x Avg Cmax): -ve | HepaRG Cmax max All ([12]; HepaRG, all endpoints, Cmax max used): -ve | HepaRG Cmax min All ([12]; HepaRG, all endpoints, Cmax min used): -ve | HepaRG <10 uM All ([12]; HepaRG, all endpoints, cut-off <10 uM): -ve | HepaRG <100x Avg Cmaxu All ([12]; HepaRG, all endpoints, cut-off <100x Avg Cmaxu): +ve (<100x Avg Cmaxu)
SMILES: [H]/N=C(/N)N[C@H]1[C@H](O)[C@@H](O)[C@H](O[C@@H]2O[C@@H](C)[C@](O)(C=O)[C@H]2O[C@@H]2O[C@@H](CO)[C@H](O)[C@@H](O)[C@@H]2NC)[C@@H](N/C(N)=N\[H])[C@@H]1O [streptomycin, reference compound]
AC50 ([1]; Homo sapiens, read-out: ATP endpoint AC50): 1960 µM | minimal effective concentration ([1]; Homo sapiens, read-out: ATP endpoint MEC): 1700 µM | DILI prediction hLiMTs (HCS-MEC) [1, 19]: -VE | PHH/100xCmax, Proctor (2017) ([2]; 2D PHH, ATP, IC50 < 100 × Cmax.tot, ref Proctor et al. 2017): -VE | PHH/100uM, Proctor (2017) ([2]; 2D PHH, ATP, IC50 threshold 100 µM, ref Proctor et al. 2017): -VE | PHH ATP <100uM [2, 20]: -VE | DILI severity category (Chen et al. [2016]) ([3]; LTKB DILIrank category, ref Chen et al. 2016): No | DILI severity category (Chen 2016) ([3]; human DILI classification, LTKB DILIrank, ref Chen et al. 2016): No | DILI severity category ([3]; human DILI severity, ref Chen et al.): No | DILI +VE (5-8), DILI -VE (-4) ([3]; ref Chen 2016): -VE | DILI severity category ([3]; ref Chen 2016): vNo-DILI-Concern | fu [4]: 0.650 | THLE-Null [6]: -VE | THLE-Null/3A4 [6]: -VE | Cluster 1-6 +VE Assay [7]: -VE | in vitro data EC2<=1x Cmax [8]: +VE | in vitro data EC20<=2uM [8]: -VE | Structural based (HCI) ([9]; In vitro Assay, ref O'Brien 2006): +VE | DILI in vitro assay prediction, O'Brien (2006) ([9]; Structural based (HCI), HepG2, ref O'Brien et al. 2006): +VE (lowest HCI endpoint IC50 (or in the absence of dose–response < 100 µM) < 30 × total human plasma exposure levels (Cmax.tot)) | Assigned DILI category ([10]; Chen et al. 2016 or literature alignment, ref Chen et al. 2016): 1 | In vivo DILI ([10]; ref Aleo 2019): -VE | In vivo DILI ([10]; ref Dawson 2012): -VE | In vivo DILI ([10]; ref Garside 2014): -VE | In vivo DILI ([10]; ref Gustafsson 2014): -VE | In vivo DILI ([10]; ref O'Brien 2006): -VE | In vivo DILI ([10]; ref Persson 2013): -VE | In vivo DILI ([10]; ref Porceddu 2012): +VE | In vivo DILI ([10]; ref Proctor 2017): -VE | In vivo DILI ([10]; ref Tolosa 2019): -VE | In vivo DILI ([10]; ref Xu 2008): -VE | Inhibition of rBsep cutoff<1& cmax u>.2 [11]: -VE | Inhibition of rBsep cutoff<3 [11]: -VE | AC50 ([12]; Homo sapiens, HepaRG, read-out: ATP endpoint AC50): 3650 µM | minimal effective concentration ([12]; Homo sapiens, HepaRG, read-out: ATP endpoint MEC): 2830 µM | minimal effective concentration ([12]; Homo sapiens, HepaRG, read-out: HCS endpoint MEC): 3140 µM | DILI prediction HepaRG spheroids (HCS-MEC) [12, 19]: -VE | Cmax [13]: 64.5 µM | Upcytes multi donor assay 14day data [14]: -VE | Cluser analysis [15, 21]: -VE | Structural based (HCI) [15, 21]: -VE | DILI in vitro assay prediction, Persson (2013) ([15]; Structural based (HCI), HepG2, ref Persson et al. 2013): -VE | Structural based (HCI) ([16]; In vitro Assay, ref Xu 2008): -VE | DILI in vitro assay prediction, Xu (2008) ([16]; Structural based (HCI), human hepatocytes, ref Xu et al. 2008): -VE | Partition Hybrid HRM Score ([17]; In vitro Assay, ref Aleo 2019): -VE | Ro2 Hybrid HRM Score ([17]; In vitro Assay, ref Aleo 2019): -VE | Partition Hybrid HRM Score ≥4, Aleo (2019) [17, 22]: -VE | Partition Hybrid HRM Score ≥8, Aleo (2019) [17, 22]: -VE | Rule of Two hybrid HRM Score ≥3, Aleo (2019) [17, 22]: -VE | Rule of Two hybrid HRM Score ≥8, Aleo (2019) [17, 22]: -VE | hLiMTs ATP <100uM [18, 20]: -VE | hLiMTs/100xCmax, Proctor (2017) ([18]; hLiMTs, ATP, IC50 < 100 × Cmax.tot, ref Proctor et al. 2017): -VE | hLiMTs/100uM, Proctor (2017) ([18]; hLiMTs, ATP, IC50 threshold 100 µM, ref Proctor et al. 2017): -VE
